What was measured:
peptic ulcer disease = conditions: clinical evaluation, in words; cited from earlier work
[1] = in words; cited from earlier work
[2] = test system: histamine-induced gastric acid output; test: Gastric antisecretory activity in the gastric fistula dog (histamine-induced gastric acid output); assay type: in vivo, dog (beagle)
Experimental: Determination of Gastric Antisecretory Activity in the Gastric Fistula Dog
Thomas type [Thomas, J. E., Proc. Soc. exp. Biol. Med., 46, 260 (1941)] stainless steel cannulae are inserted into the stomachs of beagle dogs (10-12 kg.) just orad to the pyloric gland area near the greater curvature to provide a chronic gastric fistula. Animals are allowed to recover for at least two months before any testing is done. Dogs are fasted overnight (~18 hours) with water ad lib prior to each experiment. The dogs are placed in a sling and an eight inch inside needle catheter (C. R. Baird, Inc.) with a two inch 17 gauge needle is inserted into a leg vein for purposes of drug administration. Gastric secretions are collected every 15 minutes by gravity drainage from the opened cannula. […] A modification of the procedure described by Grossman and Konturek, Gastroenterology, 66, 517 (1974) was followed. […] Each 15 minute sample of gastric juice is measured to the nearest 0.5 ml. and titratable acidity against 0.02 N NaOH (endpoint pH 7.0) is measured with an Autoburet and pH meter (radiometer). The percent inhibition of acid output is calculated as described in the pylorus ligated rat procedure.

histamine H2-receptors = biological target: T1, histamine H2-receptors (Cavia porcellus, UniProt P47747); test: Histamine H2-receptor antagonism, isolated guinea pig right atria assay; assay type: cell-based
T1 construct: The spontaneously beating right atrium was dissected free from other tissues; from tissue; host or cells: isolated spontaneously beating right atrium of male Hartley guinea pigs
Experimental: Subsequent investigations by Hughes and Coret, Proc. Soc. […] Black et al., Agents and Actions, 3, 133 (1973) and Brimblecombe et al., Fed. […] The present comparative studies were carried out using a modification of the procedure reported by Reinhardt et al., Agents and Actions, 4, 217 (1974).
Male Hartley strain guinea pigs (350-450 gm.) were sacrificed by a blow on the head. The heart was excised and placed in a Petri dish of oxygenated (95% O2, 5% CO2) modified Krebs solution (g./liter: NaCl 6.6, KCl 0.35, MgSO4.7 H2 O 0.295, KH2 PO4 0.162, CaCl2 0.238, NaHCO3 2.1 and dextrose 2.09). The spontaneously beating right atrium was dissected free from other tissues and a silk thread (4-0) attached to each end. The atrium was suspended in a 20 ml. muscle chamber containing oxygenated modified Krebs solution maintained at 32° C. Atrial contractions were recorded isometrically by means of a Grass FT 0.03 force displacement transducer and recordings of contractile force and rate were made with a Beckman RP Dynograph.
A resting tension of 1 g. was applied to the atrium and it was allowed to equilibrate for 1 hour.
Concentration-response curve displacement factors were calculated as follows: [formula] The factor obtained for BL-5641 was then expressed as a ratio of the factor obtained for cimetidine. [formula]

gastric acid output = test: Gastric antisecretory activity in the two hour pylorus ligated (Shay) rat; assay type: in vivo, rat (male Long Evans)
Description: Determination of Gastric Antisecretory Activity in the Two Hour Pylorus Ligated (Shay) Rat
The pyloric ligation procedure in the rat was designed by Shay et al., Gastroenterology, 5,53 (1945) for the study of perforating gastric ulcers; however, as the method became known, it was also employed as a means of studying rat gastric secretion, Shay et al., Gastroenterology, 26, 906 (1954), Brodie, D. A., Am. J. Dig. Dis., 11, 231 (1966). A modification of this procedure is presently used to evaluate compounds for gastric antisecretory activity.
Male Long Evans rats, 280-300 gm., are used. The animals are placed in individual cages and fasted for 24 hours with free access to water. Under ether anesthesia, the stomach is reached through a midline incision, and a cotton-thread ligature is placed around the pylorus. After wound closure, ether administration is stopped and either BL-5641, cimetidine or vehicle are administered intraperitoneally in a volume of […]. BL-5641 and cimetidine are solubilized with one equivalent of HCl and brought to the proper volume with water. The animals are returned to their cages from which the water bottles have been removed and two hours later are sacrificed with ether. The stomach is removed and the two hour gastric collection is drained into a graduated test tube for volume determination. Titratable acidity is measured by titrating a one ml. sample to pH 7.0 with 0.02 N NaOH, using an Autoburet and an electrometric pH meter (Radiometer). Titratable acid output is calculated in microequivalents by multiplying the volume in milliliters by the acid concentration in milliequivalents per liter. The percent inhibition of acid output is calculated as follows [formula]

[3] = clinical, in words; cited from earlier work
H2 receptors = conditions: in words; cited from earlier work

T1 sequence (P47747 whole entry): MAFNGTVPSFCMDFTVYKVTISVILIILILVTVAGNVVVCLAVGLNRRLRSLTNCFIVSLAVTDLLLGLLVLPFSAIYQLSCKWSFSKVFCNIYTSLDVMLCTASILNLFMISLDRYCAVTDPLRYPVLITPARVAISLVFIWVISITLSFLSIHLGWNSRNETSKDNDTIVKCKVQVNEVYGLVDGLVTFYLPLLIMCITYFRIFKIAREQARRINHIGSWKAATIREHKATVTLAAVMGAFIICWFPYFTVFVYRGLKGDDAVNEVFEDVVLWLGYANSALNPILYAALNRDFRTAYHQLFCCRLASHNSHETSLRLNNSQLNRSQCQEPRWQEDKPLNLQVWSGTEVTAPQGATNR

In the case of `CNC(=NC#N)NCCSCc1[nH]cnc1C` [Cimetidine], the “therapeutic effect in peptic ulcer disease” value (peptic ulcer disease) is given as “effective therapeutic agent in the treatment of peptic ulcer disease”, the half-life [1] is given as “relatively short” and the “% Inhibition Acid Output” value ([2]; 0.75 μM/kg. iv, 15 min, dog 23553, N=1) is given as 50%. For the same molecule, the “% Inhibition Acid Output” value ([2]; 0.75 μM/kg. iv, 30 min, dog 23553, N=1) was 10%, the “% Inhibition Acid Output” value ([2]; 0.75 μM/kg. iv, 45 min, dog 23553, N=1) was 24% and the “% Inhibition Acid Output” value ([2]; 0.75 μM/kg. iv, 60 min, dog 23553, N=1) was 17%. For the same molecule, the “% Inhibition Acid Output” value ([2]; 0.75 μM/kg. iv, 75 min, dog 23553, N=1) was 35%, the “% Inhibition Acid Output” value ([2]; 0.75 μM/kg. iv, 90 min, dog 23553, N=1) was 27% and the “% Inhibition Acid Output” value ([2]; 0.75 μM/kg. iv, 105 min, dog 23553, N=1) was 25%. The “% Inhibition Acid Output” value ([2]; 0.75 μM/kg. iv, 120 min, dog 23553, N=1) was 19%, the “% Inhibition Acid Output” value ([2]; 1.5 μM/kg. iv, 15 min, dog 24895, N=1) was 73% and the “% Inhibition Acid Output” value ([2]; 1.5 μM/kg. iv, 30 min, dog 24895, N=1) was 57%. The “% Inhibition Acid Output” value ([2]; 1.5 μM/kg. iv, 45 min, dog 24895, N=1) was 60%, the “% Inhibition Acid Output” value ([2]; 1.5 μM/kg. iv, 60 min, dog 24895, N=1) was 29% and the “% Inhibition Acid Output” value ([2]; 1.5 μM/kg. iv, 75 min, dog 24895, N=1) was 0%. The “% Inhibition Acid Output” value ([2]; 1.5 μM/kg. iv, 90 min, dog 24895, N=1) was 18%, the “% Inhibition Acid Output” value ([2]; 1.5 μM/kg. iv, 105 min, dog 24895, N=1) was 0% and the “% Inhibition Acid Output” value ([2]; 1.5 μM/kg. iv, 120 min, dog 24895, N=1) was 0%. For the same molecule, the “% Inhibition Acid Output” value ([2]; 3 μM/kg. iv, 15 min, dog 23606, N=1) was 43%, the “% Inhibition Acid Output” value ([2]; 3 μM/kg. iv, 30 min, dog 23606, N=1) was 27% and the “% Inhibition Acid Output” value ([2]; 3 μM/kg. iv, 45 min, dog 23606, N=1) was 15%. The “% Inhibition Acid Output” value ([2]; 3 μM/kg. iv, 60 min, dog 23606, N=1) was 0%, the “% Inhibition Acid Output” value ([2]; 3 μM/kg. iv, 75 min, dog 23606, N=1) was 17% and the “% Inhibition Acid Output” value ([2]; 3 μM/kg. iv, 90 min, dog 23606, N=1) was 38%. For the same molecule, the “% Inhibition Acid Output” value ([2]; 3 μM/kg. iv, 105 min, dog 23606, N=1) was 8%, the “% Inhibition Acid Output” value ([2]; 3 μM/kg. iv, 120 min, dog 23606, N=1) was 0% and the “% Inhibition Acid Output” value ([2]; 6 μM/kg. iv, 15 min, dog 22619, N=1) was 84%. For the same molecule, the “% Inhibition Acid Output” value ([2]; 6 μM/kg. iv, 30 min, dog 22619, N=1) was 96%, the “% Inhibition Acid Output” value ([2]; 6 μM/kg. iv, 45 min, dog 22619, N=1) was 73% and the “% Inhibition Acid Output” value ([2]; 6 μM/kg. iv, 60 min, dog 22619, N=1) was 67%. For the same molecule, the “% Inhibition Acid Output” value ([2]; 6 μM/kg. iv, 75 min, dog 22619, N=1) was 65%, the “% Inhibition Acid Output” value ([2]; 6 μM/kg. iv, 90 min, dog 22619, N=1) was 54% and the “% Inhibition Acid Output” value ([2]; 6 μM/kg. iv, 105 min, dog 22619, N=1) was 40%. The “% Inhibition Acid Output” value ([2]; 6 μM/kg. iv, 120 min, dog 22619, N=1) was 32%, the “% Inhibition Acid Output” value ([2]; 12 μM/kg. iv, 15 min, dog 24136, N=1) was 63% and the “% Inhibition Acid Output” value ([2]; 12 μM/kg. iv, 30 min, dog 24136, N=1) was 99%. For the same molecule, the “% Inhibition Acid Output” value ([2]; 12 μM/kg. iv, 45 min, dog 24136, N=1) was 89%, the “% Inhibition Acid Output” value ([2]; 12 μM/kg. iv, 60 min, dog 24136, N=1) was 76% and the “% Inhibition Acid Output” value ([2]; 12 μM/kg. iv, 75 min, dog 24136, N=1) was 54%. The “% Inhibition Acid Output” value ([2]; 12 μM/kg. iv, 90 min, dog 24136, N=1) was 48%, the “% Inhibition Acid Output” value ([2]; 12 μM/kg. iv, 105 min, dog 24136, N=1) was 41% and the “% Inhibition Acid Output” value ([2]; 12 μM/kg. iv, 120 min, dog 24136, N=1) was 14%. For the same molecule, the “onset of effect on gastric acid output” value ([2]; iv, in words) was “immediate inhibitory effect on gastric acid output”, the “Activity Ratio” value (histamine H2-receptors) was 1.0 and the “Histamine ED50 With 95% Confidence Limits” value (histamine H2-receptors; histamine ED50 in presence of test compound 1 × 10^-5 M, 30 min incubation) was 1.39 µg/mL. The “Concentration-Response Curve Displacement Factor” value (histamine H2-receptors; test compound 1 × 10^-5 M) was 6.6, the “% Inhibition of Acid Output” value (gastric acid output; 5 μMole/kg. ip, 2 h (cimetidine 1.25 mg/kg)) was 34% and the “% Inhibition of Acid Output” value (gastric acid output; 10 μMole/kg. ip, 2 h (BL-5641 2.76 mg/kg; cimetidine 2.5 mg/kg)) was 40%. For the same molecule, the “% Inhibition of Acid Output” value (gastric acid output; 20 μMole/kg. ip, 2 h (BL-5641 5.53 mg/kg; cimetidine 5 mg/kg)) was 60%, the “% Inhibition of Acid Output” value (gastric acid output; 40 μMole/kg. ip, 2 h (BL-5641 11.1 mg/kg; cimetidine 10 mg/kg)) was 66% and the ED50 (gastric acid output; Rattus norvegicus, ip, 2 h, read-out: ED50 (inhibition of acid output)) was about 14 µmol/kg. The “toxicity (agranulocytosis)” value [3] was “without producing agranulocytosis” and the H2 antagonist potency/effectiveness (H2 receptors) was “as effective an H2 antagonist as metiamide”.
